Laboratory results: ChEMBL document CHEMBL1132957, “Design of potent dicyclic (4-10/5-8) gonadotropin releasing hormone (GnRH) antagonists” (J Med Chem, 2000)
Values belong to the molecule of their own block, whether it stands above or below them. The source made the active and inactive calls. No cut-off for these calls is given here. Positions of bridges follow the written chain, without caps; N, C: chain ends. Non-standard residues stand in square brackets, D forms with d. Residues, ends and D or L forms follow the SMILES beside them. dPhe(4-Cl) = N[C@H](Cc1ccc(Cl)cc1)C(=O)O; d2Nal = N[C@H](Cc1ccc2ccccc2c1)C(=O)O; Dap = NC[C@H](N)C(=O)O

Tests used:
Rattus norvegicus [1] = assay: Evaluated for the ovulation effects in the rat by administering the drug at the doses (1.0 ug); 4/4; format: functional, organism-based
[2] = molecular target: T1, Gonadotropin-releasing hormone receptor (Rattus norvegicus, UniProt P30969); assay: Competitive radioligand binding assay, in human HEK293 cells stably transfected with the rat Gonadotropin-releasing hormone receptor; format: cell-based
T1 sequence (P30969 whole entry): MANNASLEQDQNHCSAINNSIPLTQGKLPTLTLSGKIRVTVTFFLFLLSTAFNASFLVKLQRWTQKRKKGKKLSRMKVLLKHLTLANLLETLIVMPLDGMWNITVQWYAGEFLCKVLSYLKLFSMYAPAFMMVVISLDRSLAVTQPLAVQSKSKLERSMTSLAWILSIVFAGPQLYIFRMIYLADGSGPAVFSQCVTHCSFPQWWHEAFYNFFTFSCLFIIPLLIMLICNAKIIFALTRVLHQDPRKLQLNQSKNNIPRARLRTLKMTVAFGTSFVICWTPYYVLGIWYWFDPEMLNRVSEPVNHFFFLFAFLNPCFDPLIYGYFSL

Rattus norvegicus [3] = assay: Evaluated for the ovulation effects in the rat by administering the drug at the doses (2.5 ug); 3/8; format: functional, organism-based
Rattus norvegicus [4] = assay: Evaluated for the ovulation effects in the rat by administering the drug at the doses (5 ug); 3/20; format: functional, organism-based
Rattus norvegicus [5] = assay: Evaluated for the ovulation effects in the rat by administering the drug at the doses (2.5 ug); 9/10; format: functional, organism-based
Rattus norvegicus [6] = assay: Evaluated for the ovulation effects in the rat by administering the drug at the doses (10 ug); 0/10; format: functional, organism-based
Rattus norvegicus [7] = assay: Evaluated for the ovulation effects in the rat by administering the drug at the doses (250 ug); 1/3
Rattus norvegicus [8] = assay: Evaluated for the ovulation effects in the rat by administering the drug at the doses (250 ug); 0/6; format: functional, organism-based
Rattus norvegicus [9] = assay: Evaluated for the ovulation effects in the rat by administering the drug at the doses (10 ug); 3/3; format: functional, organism-based
Rattus norvegicus [10] = assay: Evaluated for the ovulation effects in the rat by administering the drug at the doses (2.5 ug); 3/3; format: functional, organism-based
Rattus norvegicus [11] = assay: Evaluated for the ovulation effects in the rat by administering the drug at the doses (5 ug); 2/6; format: functional, organism-based
Rattus norvegicus [12] = assay: Evaluated for the ovulation effects in the rat by administering the drug at the doses (2.5 ug); 3/10; format: functional, organism-based
Rattus norvegicus [13] = assay: Evaluated for the ovulation effects in the rat by administering the drug at the doses (5 ug); 1/8; format: functional, organism-based
Rattus norvegicus [14] = assay: Evaluated for the ovulation effects in the rat by administering the drug at the doses (1.0 ug); 11/15; format: functional, organism-based
Rattus norvegicus [15] = assay: Evaluated for the ovulation effects in the rat by administering the drug at the doses (10 ug); 0/9; format: functional, organism-based
Rattus norvegicus [16] = assay: Evaluated for the ovulation effects in the rat by administering the drug at the doses (10 ug); 4/9; format: functional, organism-based

Ki ([2]; hek293): 0.84 nM
Structure (SMILES): CC[C@H](NC(C)=O)C(=O)N[C@@H](Cc1ccc(Cl)cc1)C(=O)N[C@@H](Cc1c[nH]c2ccccc12)C(=O)N[C@@H](CC(=O)O)C(=O)N[C@@H]1CCC(=O)NCCCC[C@@H](C(=O)N2CCC[C@@H]2C(=O)N[C@@H](C)C(N)=O)NC(=O)[C@H](CC(C)C)NC(=O)[C@@H](CCCNC(=N)N)NC1=O (stereo in doubt; 13)

Ki [2]: 0.59 nM
Structure (SMILES): CC(=O)N[C@H](Cc1ccc2ccccc2c1)C(=O)N[C@H](Cc1ccc(Cl)cc1)C(=O)N[C@H](Cc1cccnc1)C(=O)N[C@H]1CC(=O)NC[C@@H](C(N)=O)NC(=O)[C@@H]2CCCN2C(=O)[C@@H]2CCNC(=O)[C@H](CCCN=C(N)N)NC(=O)CC[C@H](NC1=O)C(=O)N[C@H](Cc1cccnc1)C(=O)N[C@@H](CC(C)C)C(=O)N2
Activity (Rattus norvegicus [7]): Weak activity | Activity (Rattus norvegicus [8]): Active | Activity (Rattus norvegicus [9]): inactive

Ki [2]: 0.75 nM
Structure (SMILES): CC(=O)N[C@H](Cc1ccc2ccccc2c1)C(=O)N[C@H](Cc1ccc(Cl)cc1)C(=O)N[C@H](Cc1cccnc1)C(=O)N[C@H]1CC(=O)NC[C@@H](C(N)=O)NC(=O)[C@@H]2CCCN2C(=O)[C@@H]2CCCNC(=O)[C@H](Cc3ccccc3)NC(=O)C[C@H](NC1=O)C(=O)N[C@H](CCCN=C(N)N)C(=O)N[C@@H](CC(C)C)C(=O)N2
Activity (Rattus norvegicus [10]): inactive | Activity (Rattus norvegicus [11]): Weak activity

Further lines, the molecule ahead of its results:

Structure (SMILES): CC(=O)N[C@H](Cc1ccc2ccccc2c1)C(=O)N[C@H](Cc1ccc(Cl)cc1)C(=O)N[C@H](Cc1cccnc1)C(=O)N[C@H]1CC(=O)NC[C@@H](C(N)=O)NC(=O)[C@@H]2CCCN2C(=O)[C@@H]2CCNC(=O)[C@H](Cc3c[nH]cn3)NC(=O)CC[C@H](NC1=O)C(=O)N[C@H](CCCN=C(N)N)C(=O)N[C@@H](CC(C)C)C(=O)N2
Activity (Rattus norvegicus [1]): inactive | Ki [2]: 0.1 nM | Activity (Rattus norvegicus [3]): Weak activity

Structure (SMILES): CC(=O)N[C@H](Cc1ccc2ccccc2c1)C(=O)N[C@H](Cc1ccc(F)cc1)C(=O)N[C@H](Cc1c[nH]c2ccccc12)C(=O)N[C@H]1CC(=O)NC(C(N)=O)NC(=O)[C@@H]2CCCN2C(=O)[C@H](CCCNC(=N)N)NC(=O)[C@H](CC(C)C)NC(=O)[C@@H](CCCNC(=N)N)NC(=O)[C@H](Cc2ccc(O)cc2)NC1=O (some centres undefined)
Ki ([2]; hek293): 1.3 nM

Structure (SMILES): CC(=O)N[C@H](Cc1ccc2ccccc2c1)C(=O)N[C@H](Cc1ccc(Cl)cc1)C(=O)N[C@H](Cc1c[nH]c2ccccc12)C(=O)N[C@H]1CC(=O)NC[C@@H](C(N)=O)NC(=O)[C@@H]2CCCN2C(=O)[C@@H]2CCCCNC(=O)CC[C@H](NC1=O)C(=O)N[C@H](CCCN=C(N)N)C(=O)N[C@@H](CC(C)C)C(=O)N2 (Ac-[d2Nal][dPhe(4-Cl)][dW]DE[dR]LKP[Dap]-NH2; lactam 4-10, 5-8)
Activity (Rattus norvegicus [4]): Weak activity | Ki [2]: 0.32 nM | Activity (Rattus norvegicus [5]): inactive | Activity (Rattus norvegicus [6]): Active

Structure (SMILES): CC(=O)N[C@H](Cc1ccc2ccccc2c1)C(=O)N[C@H](Cc1ccc(Cl)cc1)C(=O)N[C@H](Cc1cccnc1)C(=O)N[C@H]1CC(=O)NC[C@@H](C(N)=O)NC(=O)[C@@H]2CCCN2C(=O)[C@@H]2CCNC(=O)[C@H](Cc3ccccc3)NC(=O)CC[C@H](NC1=O)C(=O)N[C@H](CCCN=C(N)N)C(=O)N[C@@H](CC(C)C)C(=O)N2
Activity (Rattus norvegicus [12]): Weak activity | Activity (Rattus norvegicus [13]): Active | Ki [2]: 0.23 nM | Activity (Rattus norvegicus [14]): inactive | Activity (Rattus norvegicus [15]): Active

Structure (SMILES): CC(=O)N[C@H](Cc1ccc2ccccc2c1)C(=O)N[C@H](Cc1ccc(Cl)cc1)C(=O)N[C@H](Cc1cccnc1)C(=O)N[C@H]1CC(=O)NC[C@@H](C(N)=O)NC(=O)[C@@H]2CCCN2C(=O)[C@@H]2CCNC(=O)CN(C)C(=O)CC[C@H](NC1=O)C(=O)N[C@H](CCCN=C(N)N)C(=O)N[C@@H](CC(C)C)C(=O)N2
Activity (Rattus norvegicus [16]): Weak activity | Ki [2]: 0.2 nM

Structure (SMILES): CC(=O)N[C@H](Cc1ccc2ccccc2c1)C(=O)N[C@H](Cc1ccc(F)cc1)C(=O)N[C@H](Cc1c[nH]c2ccccc12)C(=O)N[C@H]1CC(=O)NCC[C@@H](C(N)=O)NC(=O)[C@@H]2CCCN2C(=O)[C@H](CCCNC(=N)N)NC(=O)[C@H](CC(C)C)NC(=O)[C@@H](CCCNC(=N)N)NC(=O)[C@H](Cc2ccc(O)cc2)NC1=O
Ki ([2]; hek293): 10 nM
